Response data for 47 molecules are collected here from ChEMBL document CHEMBL1131783, “Prodrugs of CL316243: a selective beta3-adrenergic receptor agonist for treating obesity and diabetes” (Bioorg Med Chem Lett, 1999).

This test deals with Beta-3 adrenergic receptor (Rattus norvegicus) (UniProt P26255). The test can be described thus: Beta-3-adrenergic activity measured by percent response against free fatty acid (FFA) in rat plasma at a dosage of 0.1 mg/kg. It counts as functional, organism-based. Also on record: dose 0.1 mg/kg.
Beta-3 adrenergic receptor (Rattus norvegicus), sequence (P26255 whole entry): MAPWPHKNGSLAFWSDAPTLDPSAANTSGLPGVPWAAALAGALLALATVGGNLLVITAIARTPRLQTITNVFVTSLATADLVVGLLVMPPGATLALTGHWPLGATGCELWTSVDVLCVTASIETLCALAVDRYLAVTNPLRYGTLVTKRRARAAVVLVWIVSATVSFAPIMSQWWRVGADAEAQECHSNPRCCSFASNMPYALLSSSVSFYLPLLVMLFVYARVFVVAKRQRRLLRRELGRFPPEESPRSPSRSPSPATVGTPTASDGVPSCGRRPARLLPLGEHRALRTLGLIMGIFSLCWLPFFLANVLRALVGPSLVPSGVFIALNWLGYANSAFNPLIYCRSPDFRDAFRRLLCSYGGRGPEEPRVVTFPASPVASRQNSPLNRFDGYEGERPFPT
Turning to `CCCCCCOC(=O)C1(C(=O)OCCCCCC)Oc2ccc(C[C@@H](C)NC[C@H](O)c3cccc(Cl)c3)cc2O1`, the Response stood at 51%. With `CCC(CC)OC(=O)C1(C(=O)O)Oc2ccc(C[C@@H](C)NC[C@H](O)c3cccc(Cl)c3)cc2O1` (some centres not stated) the figure was 52%; with `C[C@H](Cc1ccc2c(c1)OC(C(=O)O)(C(=O)OC[Si](C)(C)C)O2)NC[C@H](O)c1cccc(Cl)c1` (some centres not stated), 30%; with `C[C@H](Cc1ccc2c(c1)OC(C(=O)O)(C(=O)OCCC(C)(C)C)O2)NC[C@H](O)c1cccc(Cl)c1` (some centres not stated), 61%. With `CCCC(=O)OCOC(=O)C1(C(=O)OCOC(=O)CCC)Oc2ccc(C[C@@H](C)NC[C@H](O)c3cccc(Cl)c3)cc2O1` the figure was 24%. The value for `CCOCCOC(=O)C1(C(=O)O)Oc2ccc(C[C@@H](C)NC[C@H](O)c3cccc(Cl)c3)cc2O1` (some centres not stated) was 73%; that for `C[C@H](Cc1ccc2c(c1)OC(C(=O)OCc1ccccc1)(C(=O)OCc1ccccc1)O2)NC[C@H](O)c1cccc(Cl)c1` was 21%.

For `CCCCCCCCOC(=O)C1(C(=O)OCCCCCCCC)Oc2ccc(C[C@@H](C)NC[C@H](O)c3cccc(Cl)c3)cc2O1`, the Response came to 46%.

`CCC(=O)OC(C)OC(=O)C1(C(=O)OC(C)OC(=O)CC)Oc2ccc(C[C@@H](C)NC[C@H](O)c3cccc(Cl)c3)cc2O1` (some centres not stated): the Response turned out to be 2%. `CCOC(=O)C1(C(=O)O)Oc2ccc(C[C@@H](C)NC[C@H](O)c3cccc(Cl)c3)cc2O1` (some centres not stated): the Response worked out at 57%. With `C[C@H](Cc1ccc2c(c1)OC(C(=O)OCCc1cccc(Br)c1)(C(=O)OCCc1cccc(Br)c1)O2)NC[C@H](O)c1cccc(Cl)c1` the figure was 71%.

For the molecule `C[C@H](Cc1ccc2c(c1)OC(C(=O)OC1CCCC1)(C(=O)OC1CCCC1)O2)NC[C@H](O)c1cccc(Cl)c1`, the Response turned out to be 118%.

The molecule `C[C@H](Cc1ccc2c(c1)OC(C(=O)OCC1CCOC1)(C(=O)OCC1CCOC1)O2)NC[C@H](O)c1cccc(Cl)c1` (some centres not stated) came in with a Response of 68%. With `C[C@H](Cc1ccc2c(c1)OC(C(=O)OCC1(C)CCCCC1)(C(=O)OCC1(C)CCCCC1)O2)NC[C@H](O)c1cccc(Cl)c1` the figure was 84%.

On to `C[C@H](Cc1ccc2c(c1)OC(C(=O)OCCCCc1ccccc1)(C(=O)OCCCCc1ccccc1)O2)NC[C@H](O)c1cccc(Cl)c1`, for which the Response came out at 43%. The value for `C[C@H](Cc1ccc2c(c1)OC(C(=O)OCCC1CC1)(C(=O)OCCC1CC1)O2)NC[C@H](O)c1cccc(Cl)c1` was 77%; that for `CCCCOC(=O)C1(C(=O)OCCCC)Oc2ccc(C[C@@H](C)NC[C@H](O)c3cccc(Cl)c3)cc2O1` was 83%.

`C[C@H](Cc1ccc2c(c1)OC(C(=O)O)(C(=O)OCCC1CC1)O2)NC[C@H](O)c1cccc(Cl)c1` (some centres not stated) returned a Response of 19%. With `C[C@H](Cc1ccc2c(c1)OC(C(=O)OC[Si](C)(C)C)(C(=O)OC[Si](C)(C)C)O2)NC[C@H](O)c1cccc(Cl)c1` the figure was 73%; with `CCOC(=O)COC(=O)C1(C(=O)OCC(=O)OCC)Oc2ccc(C[C@@H](C)NC[C@H](O)c3cccc(Cl)c3)cc2O1`, 22%; with `C[C@H](Cc1ccc2c(c1)OC(C(=O)O)(C(=O)OCC1CC1)O2)NC[C@H](O)c1cccc(Cl)c1` (some centres not stated), 37%. In the case of `CC(C)OCCOC(=O)C1(C(=O)OCCOC(C)C)Oc2ccc(C[C@@H](C)NC[C@H](O)c3cccc(Cl)c3)cc2O1`, the Response was determined as 86%. With `C=CCOC(=O)C1(C(=O)OCC=C)Oc2ccc(C[C@@H](C)NC[C@H](O)c3cccc(Cl)c3)cc2O1` the figure was 86%. For the molecule `CC(C)OC(=O)C1(C(=O)O)Oc2ccc(C[C@@H](C)NC[C@H](O)c3cccc(Cl)c3)cc2O1` (some centres not stated), the Response was 45%. The value for `COCCOC(=O)C1(C(=O)OCCOC)Oc2ccc(C[C@@H](C)NC[C@H](O)c3cccc(Cl)c3)cc2O1` was 65%; that for `CC(C)C(=O)OCOC(=O)C1(C(=O)OCOC(=O)C(C)C)Oc2ccc(C[C@@H](C)NC[C@H](O)c3cccc(Cl)c3)cc2O1` was 26%. The value for `CCCCOCCOC(=O)C1(C(=O)OCCOCCCC)Oc2ccc(C[C@@H](C)NC[C@H](O)c3cccc(Cl)c3)cc2O1` was 58%; that for `CCCCCCCCOC(=O)C1(C(=O)O)Oc2ccc(C[C@@H](C)NC[C@H](O)c3cccc(Cl)c3)cc2O1` (some centres not stated) was 45%. For `CC(C)COCCOC(=O)C1(C(=O)OCCOCC(C)C)Oc2ccc(C[C@@H](C)NC[C@H](O)c3cccc(Cl)c3)cc2O1`, the Response is 63%. With `C[C@H](Cc1ccc2c(c1)OC(C(=O)OC/C=C/c1ccccc1)(C(=O)OC/C=C/c1ccccc1)O2)NC[C@H](O)c1cccc(Cl)c1` the figure was 58%; with `C[C@H](Cc1ccc2c(c1)OC(C(=O)OCc1cccc(Cl)c1)(C(=O)OCc1cccc(Cl)c1)O2)NC[C@H](O)c1cccc(Cl)c1`, 46%; with `CCCCCCC(=O)OCOC(=O)C1(C(=O)OCOC(=O)CCCCCC)Oc2ccc(C[C@@H](C)NC[C@H](O)c3cccc(Cl)c3)cc2O1`, 23%. The value for `CC(OC(=O)c1ccccc1)OC(=O)C1(C(=O)OC(C)OC(=O)c2ccccc2)Oc2ccc(C[C@@H](C)NC[C@H](O)c3cccc(Cl)c3)cc2O1` (some centres not stated) was 30%; that for `C[C@H](Cc1ccc2c(c1)OC(C(=O)OCC(=O)Oc1ccccc1)(C(=O)OCC(=O)Oc1ccccc1)O2)NC[C@H](O)c1cccc(Cl)c1` was 37%.

`C[C@H](Cc1ccc2c(c1)OC(C(=O)OCCc1cccc(C(F)(F)F)c1)(C(=O)OCCc1cccc(C(F)(F)F)c1)O2)NC[C@H](O)c1cccc(Cl)c1` registered a Response of 28%.

With `CCC(CC)COC(=O)C1(C(=O)OCC(CC)CC)Oc2ccc(C[C@@H](C)NC[C@H](O)c3cccc(Cl)c3)cc2O1`, the Response was determined as 86%. With `C[C@H](Cc1ccc2c(c1)OC(C(=O)OCC(C)(C)CO)(C(=O)OCC(C)(C)CO)O2)NC[C@H](O)c1cccc(Cl)c1` the figure was 78%.

Take `C[C@H](Cc1ccc2c(c1)OC(C(=O)O)(C(=O)OCCOC(C)(C)C)O2)NC[C@H](O)c1cccc(Cl)c1` (some centres not stated): the Response amounted to 20%. The value for `C[C@H](Cc1ccc2c(c1)OC(C(=O)OCC(=O)c1ccccc1)(C(=O)OCC(=O)c1ccccc1)O2)NC[C@H](O)c1cccc(Cl)c1` was 7%. With `CC(C)CCOC(=O)C1(C(=O)O)Oc2ccc(C[C@@H](C)NC[C@H](O)c3cccc(Cl)c3)cc2O1` (some centres not stated) the figure was 42%; with `CC(OC(=O)C(C)(C)C)OC(=O)C1(C(=O)OC(C)OC(=O)C(C)(C)C)Oc2ccc(C[C@@H](C)NC[C@H](O)c3cccc(Cl)c3)cc2O1` (some centres not stated), 23%; with `C[C@H](Cc1ccc2c(c1)OC(C(=O)O)(C(=O)OCCOc1ccccc1)O2)NC[C@H](O)c1cccc(Cl)c1` (some centres not stated), 51%.

In turn, `C[C@H](Cc1ccc2c(c1)OC(C(=O)O)(C(=O)OCC1CCC1)O2)NC[C@H](O)c1cccc(Cl)c1` (some centres not stated) gave a Response of 39%. The value for `CC(C)OC(=O)COC(=O)C1(C(=O)OCC(=O)OC(C)C)Oc2ccc(C[C@@H](C)NC[C@H](O)c3cccc(Cl)c3)cc2O1` was 78%; that for `CCOCCOC(=O)C1(C(=O)OCCOCC)Oc2ccc(C[C@@H](C)NC[C@H](O)c3cccc(Cl)c3)cc2O1` was 101%. The value for `CC(OC(=O)C1(C(=O)OC(C)c2ccccc2)Oc2ccc(C[C@@H](C)NC[C@H](O)c3cccc(Cl)c3)cc2O1)c1ccccc1` (some centres not stated) was 78%.

On to `C[C@H](Cc1ccc2c(c1)OC(C(=O)OCC[Si](C)(C)C)(C(=O)OCC[Si](C)(C)C)O2)NC[C@H](O)c1cccc(Cl)c1`, for which the Response was 60%.
